{"source": "patent US10253081B2", "about": "“Glucagon analogues” (Zealand Pharma A/S, priority 2012, dated 2019)", "key": {"[1]": {"experiment": "Pharmacokinetic parameters after subcutaneous and intravenous administration to mice", "type": "in vivo", "details": "male, mouse, plasma, 20 nmol/kg, C57Bl/6J mice; for half-life: read-out: Terminal half life (converted)", "method": "Pharmacokinetic parameters of the test compounds were determined after subcutaneous and intravenous administration to C57Bl/6J mice.\n8 week old male C57Bl/6J mice were obtained from Taconic (Denmark) weighing approximately 20-25 g at time of arrival at the test facility. The mice were caged in European standard cages type III with light cycle of 12-hour dark and 12-hour light (lights on 06.00). Both diet, Altromin 1324 (Altromin, Germany), and water was administered ad libitum during the whole experimental period. The 8-11 week animals were imported to the laboratory at least 7 days before the start up of the experimental procedure in order to assure proper acclimatization. After sampling the mice were euthanized by cervical dislocation.\nThe compounds were first dissolved in 0.096% aqueous ammonia to a nominal concentration of 2 mg/ml, and then diluted to the desired dosing strength (4 μM) in sterile PBS containing 25 mM phosphate buffer, pH 7.4. Subcutaneous and intravenous injections corresponding to 20 nmol/kg were given. The GLP-1-glucagon dual agonists were administered for subcutaneous dosing in the neck region and via a lateral tail vein for intravenous dosing.\nBlood samples (250 μl) were collected from the periorbital plexus at time points 0.5, 2, 4, 6, 12, 16, 20, 24 h for subcutaneous and 10, 30 min, 3, 6, 12, 18, 24 h for intravenous administration into ice-chilled K3EDTA tubes and centrifuged for 5 minutes at 4° C. within 20 minutes of sampling. Plasma (>100 μl) was separated to ice-chilled Micronic tubes, immediately frozen, and kept at −70° C. until analysed for plasma concentration for the respective GLP-1-glucagon compound using LC-MS/MS. Individual plasma concentration-time profiles were analysed by a non-compartmental approach in WinNonLin v6.3 (Pharsight inc, Mountain View, Calif., USA), and the resulting pharmacokinetic parameters determined."}, "[2]": {"biological_target": "T1, endogenous GLP-1 receptors (Mus musculus, UniProt O35659)", "T1 construct": "Agonistic activity of the test compounds on endogenous GLP-1 receptors; endogenous in cells", "T1 sequence (O35659 22-463)": "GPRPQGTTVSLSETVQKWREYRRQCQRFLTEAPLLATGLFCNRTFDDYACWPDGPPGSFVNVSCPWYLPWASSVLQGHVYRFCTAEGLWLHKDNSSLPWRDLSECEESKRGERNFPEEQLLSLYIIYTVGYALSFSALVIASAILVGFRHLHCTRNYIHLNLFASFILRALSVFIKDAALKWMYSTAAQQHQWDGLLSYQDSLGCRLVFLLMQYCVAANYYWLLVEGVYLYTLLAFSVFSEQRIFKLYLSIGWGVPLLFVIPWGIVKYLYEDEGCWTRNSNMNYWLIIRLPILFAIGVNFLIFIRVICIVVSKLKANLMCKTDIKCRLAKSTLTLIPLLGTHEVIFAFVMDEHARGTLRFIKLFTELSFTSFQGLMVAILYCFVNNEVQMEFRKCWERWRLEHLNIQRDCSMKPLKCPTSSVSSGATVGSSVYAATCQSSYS", "experiment": "Agonistic activity on endogenous GLP-1 receptor (cAMP, murine insulinoma cell line)", "type": "cell-based", "details": "intracellular cAMP, 15 minutes at 26° C.; read-out: EC50 GLP-1R (murine insulinoma cells)", "method_in_brief": "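Murine insulinoma cells were exposed 15 min at 26° C in KRBH with 0.1% DMSO to compound or GLP-1 ([…]), then cAMP was measured by AlphaScreen against a standard curve, in quadruplicate. pEC50 came from curve fits; % CTL was normalised to the maximal GLP-1 cAMP response.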"}, "[3]": {"biological_target": "T2, human glucagon receptor (Glucagon-R) (Homo sapiens, UniProt P47871)", "T2 construct": "expressed in transfected cells", "T2 sequence (P47871 26-477)": "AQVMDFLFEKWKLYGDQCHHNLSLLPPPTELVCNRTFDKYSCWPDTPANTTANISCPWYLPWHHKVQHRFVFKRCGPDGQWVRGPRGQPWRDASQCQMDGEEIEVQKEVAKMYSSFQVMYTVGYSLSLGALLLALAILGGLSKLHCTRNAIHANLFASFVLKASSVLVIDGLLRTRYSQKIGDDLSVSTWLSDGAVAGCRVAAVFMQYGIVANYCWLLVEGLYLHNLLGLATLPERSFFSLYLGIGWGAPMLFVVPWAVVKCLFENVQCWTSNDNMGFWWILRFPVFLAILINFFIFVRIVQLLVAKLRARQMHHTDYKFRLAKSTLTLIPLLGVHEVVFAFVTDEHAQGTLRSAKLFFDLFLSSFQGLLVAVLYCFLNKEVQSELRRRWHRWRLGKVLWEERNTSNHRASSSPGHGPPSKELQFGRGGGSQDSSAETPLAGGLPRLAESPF", "experiment": "Glucagon receptor efficacy assay (cAMP AlphaScreen, CHO cells)", "type": "cell-based", "details": "Table 1A; CHO cells expressing human Glucagon-R, cAMP; read-out: EC50 hGCGR CHO-K1", "method_in_brief": "(§1)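 Stably transfected CHO clones expressing human GLP-1R or glucagon receptor were treated with increasing peptide concentrations for 15 min at room temperature in KRBH containing 0.1 mM IBMX. After lysis, cAMP was quantified by AlphaScreen; EC50 and efficacy relative to GLP-1 or glucagon reference came from curve fitting.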"}, "[4]": {"biological_target": "T3, human glucagon-like peptide 1 receptor (GLP-1R) (Homo sapiens, UniProt P43220)", "T3 construct": "expressed in transfected cells", "T3 sequence (P43220 24-463)": "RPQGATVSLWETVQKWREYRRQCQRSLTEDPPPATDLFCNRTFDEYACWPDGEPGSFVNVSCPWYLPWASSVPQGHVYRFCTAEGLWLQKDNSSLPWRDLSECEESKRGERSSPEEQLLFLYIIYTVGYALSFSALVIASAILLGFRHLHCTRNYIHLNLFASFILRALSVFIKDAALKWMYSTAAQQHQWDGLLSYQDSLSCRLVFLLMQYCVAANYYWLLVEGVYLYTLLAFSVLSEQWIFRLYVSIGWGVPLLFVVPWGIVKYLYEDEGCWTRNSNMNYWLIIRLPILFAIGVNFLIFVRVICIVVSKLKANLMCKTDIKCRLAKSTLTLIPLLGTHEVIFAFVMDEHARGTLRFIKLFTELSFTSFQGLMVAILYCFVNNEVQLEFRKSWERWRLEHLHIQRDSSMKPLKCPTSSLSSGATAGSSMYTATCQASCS", "experiment": "GLP-1 receptor efficacy assay (cAMP AlphaScreen, CHO cells)", "type": "cell-based", "details": "Table 1A", "method_in_brief": "as §1"}, "[5]": {"experiment": "Oral glucose tolerance test (OGTT)", "type": "in vivo, C57BL/6J mice", "details": "blood glucose AUC 0-120 min, 10 nmol/kg s.c. 4 h before oral glucose 2 g/kg", "method": "Male C57BL/6J mice were fasted for 10 h before they received an oral glucose bolus of 2 g/kg body weight. Peptides were dissolved in saline buffered with 25 mM phosphate and administered at a dose of 10 nmol/kg body weight by subcutaneous injection 4 h before the glucose bolus. Control animals received a vehicle injection only. Group size was 7 animals per group. A pre-dose and a pre-glucose (0 min) blood sample were obtained by tail bleeding and blood glucose was measured with a glucometer. Additional samples of tail blood for measuring blood glucose were obtained 15 min, 30 min, 60 min, 90 min and 120 min after the glucose challenge. […] Calculation of AUC was done by the trapezoidal rule without baseline correction. The data are presented as mean±S.E.M. Statistical comparisons were conducted by one-way ANOVA followed by Tukey's post test. Vehicle alone was used as a control."}}, "note": "Like-named read-outs stand apart in the source and are kept apart here. *1 amine or outer side, *2 acyl side, *3 side chain or, on linkers, in order; H or OH if unused. Where a SMILES comes first, the peptide text is derived from it. Side-chain parts run from the residue outwards. [ ]: non-standard residue; d: D form. The star is where a group is joined. γGlu = O=C(O)[C@H](CCC(=O)[*:2])N[*:1]; Palmitoyl = CCCCCCCCCCCCCCCC(=O)*; Aib = CC(C)(N)C(=O)O"}
{"compound": "CCCCCCCCCCCCCCCC(=O)N[C@@H](CCC(=O)NCCCC[C@H](NC(=O)[C@H](CCC(=O)O)NC(=O)[C@H](CC(=O)O)NC(=O)[C@H](CC(C)C)NC(=O)[C@H](Cc1ccc(O)cc1)NC(=O)[C@H](CCCCN)NC(=O)[C@H](CO)NC(=O)[C@H](Cc1ccc(O)cc1)NC(=O)[C@H](CC(=O)O)NC(=O)[C@H](CO)NC(=O)[C@@H](NC(=O)[C@H](Cc1ccccc1)NC(=O)[C@@H](NC(=O)CNC(=O)[C@H](CCC(N)=O)NC(=O)C(C)(C)NC(=O)[C@@H](N)Cc1c[nH]cn1)[C@@H](C)O)[C@@H](C)O)C(=O)N[C@@H](CCCNC(=N)N)C(=O)N[C@@H](C)C(=O)N[C@@H](CCCCN)C(=O)N[C@@H](CC(=O)O)C(=O)N[C@@H](Cc1ccccc1)C(=O)N[C@H](C(=O)N[C@@H](CCC(=O)O)C(=O)N[C@@H](Cc1c[nH]c2ccccc12)C(=O)N[C@@H](CC(C)C)C(=O)N[C@@H](CC(C)C)C(=O)N[C@@H](CO)C(=O)O)[C@@H](C)CC)C(=O)O", "note": "[Compound 11, H-H-Aib-QGTFTSDYSKYLDE-K(Hexadecanoyl-isoGlu)-RAKDFIEWLLS-OH] (H-H[Aib]QGTFTSDYSKYLDEK([γGlu-Palmitoyl])RAKDFIEWLLS-OH)", "values": [{"measurement": "clearance", "setting": "[1]; IV", "result": 0.157, "unit": "mL/min/kg"}, {"measurement": "half-life", "setting": "[1]; IV", "result": 234, "unit": "min"}, {"measurement": "Tmax", "setting": "[1]; SC", "result": 4, "unit": "h"}, {"measurement": "bioavailability", "setting": "[1]; SC", "result": 64, "unit": "%"}, {"measurement": "MRT", "setting": "[1]; SC, read-out: Mean Residence Time", "result": 12.5, "unit": "h"}, {"measurement": "half-life", "setting": "[1]; SC", "result": 300, "unit": "min"}, {"measurement": "EC50", "setting": "[2]", "result": 1.01, "unit": "nM"}, {"measurement": "EC50", "setting": "[3]", "result": 0.61, "unit": "nM"}, {"measurement": "EC50", "setting": "[4]; CHO cells expressing human GLP-1-R, cAMP, read-out: EC50 hGLP-1R CHO-K1", "result": 0.64, "unit": "nM"}, {"measurement": "Ratio GLP-1/Glucagon", "setting": "[4]; EC50 [GLP-1R]/EC50 [Glucagon-R]", "result": 1.05}, {"measurement": "AUC (% Ctrl)", "setting": "[5]", "result": 61, "unit": "% Ctrl"}]}
